Source: patent US5489609A (Zaidan Hoijn Seisan Kaihatsu Kagaku Kenkyusho, priority 1992, dated 1996)

What was measured:
[1] = system: isolated liver cells of rats; experiment: Disorder of isolated liver cells (carbon tetrachloride vapor; ALT and AST leached out); format: cell-based; settings: 37° C., 30 min, * p < 0.05
Description: Isolated liver cells of rats were prepared by means of the Segren's collagenase irrigation method, whereby a liver cell suspension was prepared to a concentration of […]. Into 2 ml of the suspension placed in an Erlenmeyer flask was put a test tube of about 0.5 ml capacity containing a 25% carbon tetrachloride solution in olive oil to saturate the reaction system with carbon tetrachloride vapor, and after the flask was tightly stoppered, preincubation was carried out at 37° C. for 30 min. One ml of a solution of the test compound in Hunk's solution was added to the suspension of liver cells, while 1 ml of Hunk's solution was added to a control. After the reaction was allowed to proceed at 37° C. for 30 min, a specifically determined volume of the reaction solution was pipetted out and immediately centrifuged under 500 g for 30 seconds, and ALT and AST leached out into the supernatant liquid were determined for activity by the Lippie method.

acetaldehyde toxicity = experiment: Protective activity against acetaldehyde toxicity (death rate within 24 hours); format: in vivo, Rats; settings: 30 min before acetaldehyde 1,200 mg/kg, 24 h
Description: Rats kept fasting with a supply of drinking water were weighed and divided into groups in such a manner that the mean body weight was uniform among the groups, with each group consisting of 10 heads. The rats were given acetaldehyde orally at a dose of 1,200 mg/kg, and the death rate within 24 hours was determined, wherein the test drug substances were administered orally 30 min before the application of acetaldehyde, with the vehicle (0.5% aqueous sodium carboxymethylcellulose) alone being given to a control group.

[2] = system: Hepatopathy in mice (carbon tetrachloride); experiment: Anti-hepatitis test: hepatopathy in mice (carbon tetrachloride); format: in vivo, ddy strain male mice; settings: for ALT, mean ± S.D. / AST, mean ± S.D.: 200 mg/kg orally 3 h after carbon tetrachloride, blood 24 h after carbon tetrachloride, * p < 0.05; for suppressory activity (hepatopathy in mice): 200 mg/kg orally, in words
Description: A group of 8 ddy strain male mice (weighing about 30 g) kept fasting from the previous day was treated by intraperitoneal injection of 0.5% carbon tetrachloride in olive oil at a dose of 0.6 ml and thereafter allowed free access to food. Three hours after the administration of carbon tetrachloride, the test compound suspended in powdered gum arabic was given to the animals orally at a dose of 200 mg/kg, and blood samples were drawn from the mice under anesthesia with ether through the abdominal descending aorta 24 hours after the administration of carbon tetrachloride. The collected blood was centrifuged at a rate of 3,000 rpm for 15 min, followed by measurement of the activities of aspartate transaminase (AST) and alanine transaminase (ALT) by means of the Lippie method.

[3] = system: Rats of KBL Wistar strain; experiment: Acute toxicity test; format: in vivo; settings: 7 day period
Description: Rats of KBL Wistar strain (weighing about […]), divided into groups each consisting of 3 heads, were treated through oral administration of the test compound suspended in powder gum arabic, followed by observation for any abnormalities over a 7 day period to find the number of dead animals.

[4] = system: Stomach injury through water-immersion constraint stress; experiment: Anti-ulcer test: stomach injury through water-immersion constraint stress; format: in vivo, male rats of KBL Wistar strain
Description: The rats were divided into groups each consisting of 8 heads in such a way that their mean body weights were nearly uniform among the groups, stress-loaded by soaking the animals placed in a stress cage of Univ. of Tokyo type in a water tank at 23° C. up to the xiphoid and then sacrificed through cervical vertebrae dislocation 7.5 hours later. The stomachs were removed and treated with formalin, and individual ulcers formed in the glandular portion of the stomach were measured in length (mm), with the measured ulcer lengths being summed for each rat. The test compound, suspended in a 0.5% aqueous solution of sodium carboxymethylcellulose, was given to the test group orally at a dose of 10 ml/kg body weight 30 min before the water-soaking constraint, whereas the vehicle alone was applied to a control group.

[5] = system: Stomach injury with hydrochloric acid/ethanol; experiment: Anti-ulcer test: stomach injury with hydrochloric acid/ethanol; format: in vivo, male rats of KBL Wistar strain
Description: The rats were divided into groups each consisting of 8 heads in such a way that their mean body weights were nearly uniform among the groups, treated by oral administration of hydrochloric acid/ethanol (0.15 mole hydrochloric acid solution in 80% ethanol) at a dose of 5 ml/kg body weight and sacrificed through cervical vertebrae dislocation 1 hour after administration. The stomachs were removed and treated with formalin, and individual ulcers formed in the glandular portion of the stomach were measured in length (mm), with the measured ulcer lengths summed for each rat. The test compound was suspended in a 0.5% aqueous solution of sodium carboxymethylcellulose, and the suspension was given to the test group orally at a dose of 10 ml/kg body weight 30 min before administration of hydrochloric acid/ethanol, whereas the vehicle (0.5% aqueous sodium carboxymethyl-cellulose) alone was applied to a control group.

[6] = conc. of test soln. 0.0125 mg/dl
[7] = conc. of test soln. 0.025 mg/dl
[8] = 50 mg/kg orally, vs Vehicle No. 1
[9] = 150 mg/kg orally, vs Vehicle No. 3

**Q.** With `NCCS(=O)(=O)O` [2-Aminoethanesulfonic acid] as the compound, how does the “ALT, mean ± S.D.” value [1, 6] read?
**A.** 847.6 ± 60.4 IU

**Q.** What about the “AST, mean ± S.D.” value [1, 6] of the same compound?
**A.** 338.8 ± 37.1 IU

**Q.** And the “ALT, mean ± S.D.” value [1, 7]?
**A.** 869.8 ± 87.6 IU

**Q.** And the “AST, mean ± S.D.” value [1, 7]?
**A.** 309.8 ± 32.4 IU

**Q.** What about the “ALT, mean ± S.D.” value ([1]; conc. of test soln. 0.05 mg/dl) of the same compound?
**A.** 849.1 ± 60.2 IU

**Q.** And the “AST, mean ± S.D.” value ([1]; conc. of test soln. 0.05 mg/dl)?
**A.** 296.3 ± 30.5 IU

**Q.** And the “ALT, mean ± S.D.” value ([1]; conc. of test soln. 0.1 mg/dl)?
**A.** 867.7 ± 158.8 IU

**Q.** What about the “AST, mean ± S.D.” value ([1]; conc. of test soln. 0.1 mg/dl) of the same compound?
**A.** 318.8 ± 49.5 IU

**Q.** And the Death rate (acetaldehyde toxicity; 250 mg/kg orally)?
**A.** 60%

**Q.** What about the “No. of dead animals (n/10)” value (acetaldehyde toxicity; 250 mg/kg orally) of the same compound?
**A.** 6/10

**Q.** What about the Death rate (acetaldehyde toxicity; 500 mg/kg orally) of the same compound?
**A.** 50%

**Q.** And the “No. of dead animals (n/10)” value (acetaldehyde toxicity; 500 mg/kg orally)?
**A.** 5/10

**Q.** And the “ALT, mean ± S.D.” value [2]?
**A.** 14609.6 ± 1684.5 IU

**Q.** What about the “AST, mean ± S.D.” value [2] of the same compound?
**A.** 12885.2 ± 2468.3 IU

**Q.** And the “suppressory activity (hepatopathy in mice)” value (“suppressory activity” below) [2]?
**A.** none of 2-aminoethanesulfonic acid, glutathione and glycyrrhizin that were used as controls at the same dose developed suppressory activity

**Q.** With `NCCS(=O)(=O)O.NCCS(=O)(=O)O.NCCS(=O)(=O)[O-].NCCS(=O)(=O)[O-].[Zn+2]` [FTZ, [Bis(2-aminoethanesulfonic acid).bis(2-aminoethanesulfonate)]zinc] as the compound, how does the “ALT, mean ± S.D.” value [1, 6] read?
**A.** 414.7 ± 36.2 IU

**Q.** And the “AST, mean ± S.D.” value [1, 6]?
**A.** 198.2 ± 22.5 IU

**Q.** What about the “ALT, mean ± S.D.” value [1, 7] of the same compound?
**A.** 459.0 ± 93.8 IU

**Q.** And the “AST, mean ± S.D.” value [1, 7]?
**A.** 186.8 ± 35.3 IU

**Q.** And the “ALT, mean ± S.D.” value ([1]; conc. of test soln. 0.05 mg/dl)?
**A.** 389.2 ± 7.3 IU

**Q.** What about the “AST, mean ± S.D.” value ([1]; conc. of test soln. 0.05 mg/dl) of the same compound?
**A.** 79.4 ± 12.3 IU

**Q.** What about the “ALT, mean ± S.D.” value ([1]; conc. of test soln. 0.1 mg/dl) of the same compound?
**A.** 435.7 ± 25.3 IU

**Q.** What about the “AST, mean ± S.D.” value ([1]; conc. of test soln. 0.1 mg/dl) of the same compound?
**A.** 33.5 ± 3.5 IU

**Q.** And the “Nd/No (No. of dead animals / total No.)” value ([3]; 1,250 mg/kg oral)?
**A.** 0/3

**Q.** And the “Nd/No (No. of dead animals / total No.)” value ([3]; 2,500 mg/kg oral)?
**A.** 0/3

**Q.** What about the “Nd/No (No. of dead animals / total No.)” value ([3]; 5,000 mg/kg oral) of the same compound?
**A.** 0/3

**Q.** What about the Incidence of ulcer ([4]; 50 mg/kg orally) of the same compound?
**A.** 8/8

**Q.** And the “Ulcer coefficient (mm) mean ± S.E.” value ([4]; 50 mg/kg orally)?
**A.** 28.5 ± 4.6 mm

**Q.** What about the Suppression % [4, 8] of the same compound?
**A.** 10.7%

**Q.** What about the Incidence of ulcer ([4]; 100 mg/kg orally) of the same compound?
**A.** 8/8

**Q.** What about the “Ulcer coefficient (mm) mean ± S.E.” value ([4]; 100 mg/kg orally, * p < 0.01) of the same compound?
**A.** 14.4 ± 3.2 mm

**Q.** What about the Suppression % ([4]; 100 mg/kg orally, vs Vehicle No. 2) of the same compound?
**A.** 37.1%

**Q.** What about the Incidence of ulcer ([4]; 150 mg/kg orally) of the same compound?
**A.** 8/8

**Q.** And the “Ulcer coefficient (mm) mean ± S.E.” value ([4]; 150 mg/kg orally, ** p < 0.01)?
**A.** 17.9 ± 3.2 mm

**Q.** What about the Suppression % [4, 9] of the same compound?
**A.** 48.4%

**Q.** And the “UD50 (mg/kg) (95% C.L.)” value ([4]; oral, 30 min before water-soaking constraint)?
**A.** 146.9 mg/kg

**Q.** And the Death rate (acetaldehyde toxicity; 250 mg/kg orally)?
**A.** 40%

**Q.** What about the “No. of dead animals (n/10)” value (acetaldehyde toxicity; 250 mg/kg orally) of the same compound?
**A.** 4/10

**Q.** What about the Death rate (acetaldehyde toxicity; 500 mg/kg orally) of the same compound?
**A.** 20%

**Q.** What about the “No. of dead animals (n/10)” value (acetaldehyde toxicity; 500 mg/kg orally) of the same compound?
**A.** 2/10

**Q.** What about the “ALT, mean ± S.D.” value [2] of the same compound?
**A.** 8597.1 ± 1450.4 IU

**Q.** What about the “AST, mean ± S.D.” value [2] of the same compound?
**A.** 7024.7 ± 1113.4 IU

**Q.** What about the Incidence of ulcer ([5]; 50 mg/kg orally) of the same compound?
**A.** 8/8

**Q.** And the “Ulcer coefficient (mm) mean ± S.E.” value ([5]; 50 mg/kg orally, * P < 0.01)?
**A.** 30.4 ± 7.8 mm

**Q.** What about the Suppression % [5, 8] of the same compound?
**A.** 35.5%

**Q.** And the Incidence of ulcer ([5]; 75 mg/kg orally)?
**A.** 8/8

**Q.** And the “Ulcer coefficient (mm) mean ± S.E.” value ([5]; 75 mg/kg orally)?
**A.** 30.2 ± 10.2 mm

**Q.** What about the Suppression % ([5]; 75 mg/kg orally, vs Vehicle No. 2) of the same compound?
**A.** 42.5%

**Q.** What about the Incidence of ulcer ([5]; 150 mg/kg orally) of the same compound?
**A.** 8/8

**Q.** And the “Ulcer coefficient (mm) mean ± S.E.” value ([5]; 150 mg/kg orally, * P < 0.01)?
**A.** 11.7 ± 4.7 mm

**Q.** And the Suppression % [5, 9]?
**A.** 67.9%

**Q.** And the “UD50 (mg/kg) (95% C.L.)” value ([5]; oral, 30 min before hydrochloric acid/ethanol)?
**A.** 86.0 mg/kg

**Q.** For `N[C@@H](CCC(=O)N[C@@H](CS)C(=O)NCC(=O)O)C(=O)O` [Glutathione], which “ALT, mean ± S.D.” value [2] is on record?
**A.** 12030.2 ± 1204.5 IU

**Q.** And the “AST, mean ± S.D.” value [2]?
**A.** 11423.3 ± 1960.8 IU

**Q.** And the “suppressory activity” value [2]?
**A.** none of 2-aminoethanesulfonic acid, glutathione and glycyrrhizin that were used as controls at the same dose developed suppressory activity

**Q.** With `CC1(C)[C@@H](O[C@H]2O[C@H](C(=O)O)[C@@H](O)[C@H](O)[C@H]2O[C@@H]2O[C@H](C(=O)O)[C@@H](O)[C@H](O)[C@H]2O)CC[C@]2(C)[C@H]3C(=O)C=C4[C@@H]5C[C@@](C)(C(=O)O)CC[C@]5(C)CC[C@@]4(C)[C@]3(C)CC[C@@H]12` [Glycyrrhizin] as the compound, how does the “ALT, mean ± S.D.” value [2] read?
**A.** 13362.1 ± 1753.1 IU

**Q.** What about the “AST, mean ± S.D.” value [2] of the same compound?
**A.** 12367.6 ± 1102.1 IU

**Q.** And the “suppressory activity” value [2]?
**A.** none of 2-aminoethanesulfonic acid, glutathione and glycyrrhizin that were used as controls at the same dose developed suppressory activity
